We go through one substance from US6994981B2, “Modulators of paraptosis and related methods” (The Buck Institute, priority 2002, dated 2006).

Series [1] concerns 293T cells transfected with NK1R. Kind of series: SP-induced, NK1R-mediated cell death in 293T cells transfected with NK1R, trypan blue and staining. The format is cell-based, human. How it is done: (§1) Human embryonic kidney 293T cells were grown as described in Example I. Transient transfection was performed using Superfect (Qiagen) as described by the manufacturer. Briefly, 2×10^5 cells/well were seeded into 35 mm wells 16 hr prior to transfection. Superfect:DNA complexes were added at a 5 μl:2 μg ratio for 3 hr; then the medium was replaced and after 24 hr SP was added. At 24–48 hr after addition of SP cell death was quantified as follows: the media containing floating cells were collected and centrifuged 10 min at 2000×g, the pellet was resuspended in PBS/trypan blue and the cells were counted using a hematocytometer. When other compounds were used, they were added at the same time as SP: zVAD.fmk or BAF was added at 50 μM and obtained from Enzyme System Products, Livermore, Calif.
Briefly, the method entailed cloning the full-length (1.2 kb) NK1R cDNA (Genbank Accession No. M31477) by RT-PCR from adult rat hippocampal RNA into the XbaI/EcoRI sites of the vector pcDNA3.1 (Invitrogen), using the following oligonucleotides: forward 5′[…] 3′ (SEQ ID NO:2); reverse 5′[…] 3′ (SEQ ID NO:3).
Cells were stained according to the manufacturer's instructions (Clontech). Briefly, cellswere washed with binding buffer and incubated with FITC-Annexin-V or EGFPAnnexin-V for 5–10 min and fixed with 4% paraformaldehyde.
Cells were fixed 10 min with 4% paraformaldehyde and stained according to the manufacturer's instructions (Promega).
The protein kinase inhibitors were added 30 min before SP exposure at the following concentrations: 10 μM Rp-8-Br-cAMPS (adenosin 3′,5′-cyclic monophosphorothioate, 8-bromo-, Rp-isomer, sodium salt) which is a PKA inhibitor; 50 nM Calphostin C, which is a PKC inhibitor; 10 μM PD 98059 which is a MAPKK (MEK) inhibitor. These compounds were obtained from Calbiochem. Viability was quantified by trypan blue staining of the total cell population.

For series [2], the system named is 293T human embryonic kidney cells. Kind of series: SP toxicity to untransfected 293T cells. Format: cell-based. The note with it: no endogenous NK1R, up to millimolar SP. The method, then:
as §1

The test system of series [3] is caspases, calpains, proteasome. Kind of series: Protease activation during SP-induced cell death, substrate hydrolysis in cytosolic extracts of NK1R-transfected 293T cells. Format: biochemical, human. How it is done:
Preparation of cell-free extract for kinetic studies: 293T cells seeded at the density of 2 million cells per 10 cm dish were transfected with NK1R cDNA using Lipofectamine 2000 (Gibco) according the instructions provided by the manufacturer. After 24 hr 10 nM SP was added to half of the culture dishes. At 24 hr later the cells were washed with ice cold PBS and collected with a cell scraper. The cells pelleted at 700×g for 4 min were resuspended in cell lysis buffer at pH 7.4 containing 1 mM dithiothreitol at a ratio of 1:1 (v/v). After 30 min on ice the swelled cells were disrupted with 20 strokes using a 27 gauge needle and further spun at 16,000×g for 30 min. The pellet was discarded and the supernatant which represents the cytosolic fraction was aliquoted and stored at −80° C. or used in the kinetic studies. The protein concentration was determined using the Bradford assay (Pierce).
For kinetic studies, the proteolytic activities were followed fluorometrically by monitoring AFC or AMC release from 100 μM of the corresponding substrates (Enzyme Systems Products): Caspase-1 like, Ac-YVAD-AFC; caspase-2, Ac-VDVAD-AFC; caspases-3 like, Ac-DEVD-AFC; caspase-6, Ac-VEID-AFC; caspase-8, Ac-IETD-AFC; caspase-9, Ac-LEHD-AFC. Calpain activity was monitored with 100 μM Suc-LY-AFC (succinyl-Leu-Tyr-7-amino-4-methylcoumarin, Enzyme Systems Products) at 5 μM and 5 mM CaCl2. The chymotrypsin activity of the proteasome was followed with 100 μM Suc-LLVY-AFC (succinyl-Leu-Leu-Val-Tyr-7-amino-4-methylcoumarin, Enzyme Systems Products), and cathepsins were assayed using 20 μM Z-FR-AMC (Benzyloxycarbonyl-Phe-Arg-7-amino-4-methylcoumarin, Bachem). A 10 μl aliquot of extract in the presence or absence of SP was added to 90 μl of substrate at the appropriate concentration and pH. The reaction was continuously monitored during 30 min and 37° C. in a fluorescence microplate reader (Molecular Devices). The instrument was set at excitation and emission wavelengths of 405 and 510 for AFC releasing group, and 370 and 460 nm, for AMC releasing group, respectively. The steady-state hydrolysis rates were obtained from the linear part of the curves.

For series [4], the system named is ERK-1/2. The series can be described thus: Western blot of ERK-1/2 phosphorylation in striatal neurons. Format: cell-based, rat. The note with it: after 10–30 min of SP stimulation; total ERK-1/2 unchanged. How it is done:
For the transfected 293T cells, cells were washed with cold PBS after incubation with SP the time indicate and homogenized on lysis buffer (150 mM NaCl, 1% Triton X-100, 50 mM Tris HCL pH8.0). Cytoplasmic extracts were collected after 10 min centrifugation at 14,000 rcf. Total amount of protein was quantified by Bradford assay and electrophoresis of equal amounts of total protein was performed on SDS-polyacrylamide gels. Separated proteins were transferred to polyvinylidene fluoride membranes at 4° C. for Western blot analysis. Membranes were probed with a 1:1000 dilution of anti-ERK-1/2 or anti phospho-ERK-1/2 (BioSource). The blots were incubated in a horseradish peroxidase coupled secondary antibody for 1 h followed by enhanced chemiluminescence detection of the proteins with […]™ ECL detection (Amersham, Arlington Heights, Ill.). For striatal neurons, total ERK-1/2 was immunoprecipitated using superparamagnetic Microbeads conjugated to protein A, following manufacture's instructions (MACS, Miltenyi Biotec), and then developed by Western blot against either anti-ERK-1/2 or anti phospho-ERK-1/2.

Series [5] has as its system total cellular cAMP. The series can be described thus: cAMP quantification in 293T cells overexpressing NK1R. Format: cell-based, human. The note with it: compared with 10 μM forskolin. How it is done: Total cellular cAMP was measured using the BiotrakBIOTRAK™ non-acetylation enzymeimmunoassay system (Amersham Phramacia Biotech), following manufacturer's instructions. Forskolin (Sigma) was added at 10 μM.

Series [6] relates to cytoplasmic calcium. Kind of series: Imaging of cytoplasmic calcium in single striatal cells. Format: cell-based. The method, then: Single-cell imaging was performed in a Merlin imaging facility (Olympus America, USA) using an Olympus IX70 inverted epifluorescence microscope equipped with a 40× oil immersion objective and a Spectramaster monochromator (Life Science Resources, Cambridge, UK) (excitation, 340 and 380 nm; emission >505 nm). Cells were loaded with 3 μM Fura-2 AM (from TEF LABS, Texas, USA) for 30 min in incubation medium containing (in mM): 120 NaCl, 3.5 KCl, 1.3 CaCl2, 0.4 KH2PO4, 20 TES buffer, 5 NaHCO3, 1.2 Na2SO4, 15 Glucose, 1.2 MgCl2, pH adjusted to 7.4 with NaOH. 30 μg/ml bovine serum albumin was also added. Experiments were performed in a non-perfusing thermostatted chamber (37° C.) with incubation medium without bovine serum albumin (Castilho et al., J. Neurosci. 18:10277–10286 (1998)).

For series [7], the system named is cytochrome c release. The note with it: cell-free system of apoptosis; cited from earlier work.

Take “SP: eleven amino acid neurotransmitter of the tachykinin family, ligand of NK1R”: in series [1], the “sensitivity of NK1R-transfected 293T cells to SP” value is on record as “sensitive to SP at nanomolar concentrations”. The “sensitivity of 293T cells to SP-induced cell death” value in series [2] is “resistant”. The “activation of calpains and chymotrypsin-like activity of the proteasome” value in series [3] is reported as “no significant effect on the rates of substrate hydrolysis”. In addition, in series [3] (10 nM SP, 24 hr), the “hydrolysis of substrates for initiator and executioner caspases” value was “no hydrolysis of substrates”. Besides, the “DEVDase activity in response to SP stimulation” value in series [3] (extracts with granzyme B added) was “no significant difference”. Besides, the “amount of phosphorylated ERK-1/2” value in series [4] was “increase”. In series [5], the “production of cAMP in response to SP” value is “Neither the wild type nor the mutant NK1Rd342 overexpressed in 293T cells generated a significant amount of cAMP”. Besides, in series [6], the “change in cytoplasmic calcium” value is “did not induce a detectable change”. Moreover, the cytochrome c release result in series [7] is recorded as “can induce cytochrome c release”.
